How the values were obtained:
[1] = Substrate (ligand) specificity of […]s; format: biochemical; settings: for fluorescence response of GECFINDER to each substrate, AVE of 3 repeats: Supplementary Fig. 3 c, substrate specificity
Method: (§1) Fig. 4 Engineering ligand specificity of GrsA-PheA for generating […]s. a The selectivity-conferring code of Phe and Leu A domains. b–f Dose–response curve of purified […]s with increasing concentrations of ligands in 100 mM Tris-HCl buffer (pH=7.5). All data shown are means ± S.D. (n = 3 biologically independent samples). g A series of […] reactions was tested to show the […]’s specificity with 20 proteinogenic amino acids. The values on the heatmap represent the ΔF/F0 value normalized to each […]’s maximal ΔF/F0 value ((ΔF/F0)/maximal ΔF/F0). The concentrations of 20 amino acids were 100 μM. The color indicates the average value of three independent biological replicates after 15 min. All data shown are means ± S.D. (n = 3 biologically independent samples). Source data are provided as a Source data file.
Ligand specificity is an important biosensors feature. Generally, the NRPS A domains have high specificity for their substrates because they are the first “gatekeeper” of NRPSs and ensure that the correct monomers are activated and thioesterified[32],[33]. Therefore, we speculated that this property would be inherited by our […]s because the ligand-binding pockets were unchanged during the […] creation process. Twenty proteinogenic amino acids were used to test the ligand specificity of […]s. […] We also investigated the dependence of […]s on Mg^2+ and ATP (Supplementary Fig. 4). […] This phenomenon corroborates with the distinct conformational changes observed in Hinge A of Nt4CL2 (Mg^2++ATP) (PDB ID: 5BSM) and Nt4CL2 (Coumaroyl-AMP) (PDB ID: 5BST) reported in the literature (Supplementary Fig. 4k), where the direction of motion in hinge A differs. […] During the determination of quantum yield, we observed that the absolute quantum yield of the […] variants ranged from 0.3 to 0.6 upon addition of the respective substrates, which show no significant difference with that reported in literature. The specific values are provided in Supplementary Table 2.
(§2) The study conducted dose–response curve, substrate specificity, and fluorescent spectrum analyses in 100-mM Tris buffer (pH = 7.5), while pH stability experiments were performed in 100-mM Tris buffer at three different pH values (6.5, 7.5, and 8.5) at room temperature. […] protein at a concentration of 0.75 μM, various small molecule concentrations, 1 mM ATP, and 2.5 mM MgCl2 were used in the experiments. Fluorescent signals were detected using a Microplate Reader (Synergy H4, Bio Tek) at an excitation/emission wavelength of 460 nm/510 nm or 480 nm/510 nm. The dose-response curve was determined immediately after the addition of the analyte. The total duration of the measurement was 15 min, with readings taken at one-minute intervals. The dose-response curve was plotted using the fluorescence values obtained after achieving stability in the fluorescence signal. The dose-response curves were fitted using the logistic model LOGISTIC5 available in Origin 2021, which could provide a more adequate fit to asymmetric dose-response data[62],[63]. Excitation spectra were scanned from 300 to 540 nm with a step size of 5 nm, and the emission wavelength was set to 560 nm. Emission spectra were scanned from 470 to 700 nm with a step size of 5 nm, and the excitation wavelength was set to 450 nm. The thermal stability of […] was analyzed using the UNcle multifunctional protein stability analysis system. Measurements were performed in 20 mM MOPS buffer with 2 mM DTT at a sample concentration of 1 mg/mL. Absolute fluorescence quantum yields were measured using an absolute photoluminescence quantum yield spectrometer (FS5, Edinburgh).

[2] = Dose–response curve of purified […]s with tyrosine; format: biochemical
Method: as §1, §2

[3] = Dose–response curve of purified […] with glutamic acid; format: biochemical; design: key: normalized ΔF/F0 (fluorescence change relative to baseline F0)
Method: Fig. 3 Dose–response curves and fluorescence spectrums of […]s. a, c, e, g, i, k Dose–response curve of purified […]s with increasing concentrations of ligand in 100 mM Tris-HCl buffer (pH=7.5). The normalized ΔF/F0 value increased after ligand binding. All data shown are mean ± S.D. (n = 3 biologically independent samples). b, d, f, h, j, l The fluorescence spectra of […]s changed as the ligand concentration increased. All data shown are mean ± S.D. (n = 3 biologically independent samples). Source data are provided as a Source data file.
as §2

[4] = Fluorescence spectra / excitation wavelength scan of […]s; format: physicochemical; settings: Wavelength 300 nm
Method: Fig. 3 Dose–response curves and fluorescence spectrums of […]s. a, c, e, g, i, k Dose–response curve of purified […]s with increasing concentrations of ligand in 100 mM Tris-HCl buffer (pH=7.5). […] All data shown are mean ± S.D. (n = 3 biologically independent samples). Source data are provided as a Source data file.
as §2

[5] = Dose–response curve of purified […]s with S-β-phenylalanine; format: biochemical
Method: as §1, §2

With `N[C@@H](Cc1ccc(O)cc1)C(=O)O` [Tyr] the “AVE of Repeat 1-3, sensor signal with ligand (Supplementary Fig. 7 c)” value ([1]; 1 mM ligand, Control AVE 12117.3) was 11224.3, the “fluorescence response of GECFINDER to each substrate, AVE of 3 repeats” value (“fluorescence response of GECFINDER” for short) [1] was -0.01776 and the “AVE, dose-response Fig. 4 b” value ([2]; substrate Tyr 0.5 μM) was 7.517e-17. For the same compound, the “AVE, dose-response Fig. 4 b” value ([2]; substrate Tyr 1 μM) was 0.02259, the “AVE, dose-response Fig. 4 b” value ([2]; substrate Tyr 5 μM) was 0.05606 and the “AVE, dose-response Fig. 4 b” value ([2]; substrate Tyr 10 μM) was 0.0659. For the same compound, the “AVE, dose-response Fig. 4 b” value ([2]; substrate Tyr 20 μM) was 0.09543, the “AVE, dose-response Fig. 4 b” value ([2]; substrate Tyr 50 μM) was 0.2237 and the “AVE, dose-response Fig. 4 b” value ([2]; substrate Tyr 100 μM) was 0.3812. For the same compound, the “AVE, dose-response Fig. 4 b” value ([2]; substrate Tyr 200 μM) was 0.5926, the “AVE, dose-response Fig. 4 b” value ([2]; substrate Tyr 250 μM) was 0.6977 and the “AVE, dose-response Fig. 4 b” value ([2]; substrate Tyr 500 μM) was 1.046. The “AVE, dose-response Fig. 4 b” value ([2]; substrate Tyr 750 μM) was 1.209, the “AVE, dose-response Fig. 4 b” value ([2]; substrate Tyr 1000 μM) was 1.242 and the “AVE, dose-response Fig. 4 e” value ([2]; substrate Tyr 0.1 μM) was 0. The “AVE, dose-response Fig. 4 e” value ([2]; substrate Tyr 0.2 μM) was 0.01578, the “AVE, dose-response Fig. 4 e” value ([2]; substrate Tyr 1 μM) was 0.04154 and the “AVE, dose-response Fig. 4 e” value ([2]; substrate Tyr 2 μM) was 0.05025. The “AVE, dose-response Fig. 4 e” value ([2]; substrate Tyr 10 μM) was 0.1198, the “AVE, dose-response Fig. 4 e” value ([2]; substrate Tyr 20 μM) was 0.1707 and the “AVE, dose-response Fig. 4 e” value ([2]; substrate Tyr 100 μM) was 0.4124. The “AVE, dose-response Fig. 4 e” value ([2]; substrate Tyr 200 μM) was 0.5306, the “AVE, dose-response Fig. 4 e” value ([2]; substrate Tyr 500 μM) was 0.6788 and the “AVE, dose-response Fig. 4 e” value ([2]; substrate Tyr 1000 μM) was 0.7749. For the same compound, the “AVE, dose-response Fig. 4 e” value ([2]; substrate Tyr 1500 μM) was 0.7754 and the “AVE, dose-response Fig. 4 e” value ([2]; substrate Tyr 2000 μM) was 0.7447.

In the case of `N[C@@H](CCC(=O)O)C(=O)O` [Glu], the “Dose-response, AVE of Repeat 1-3 (Fig. 3 e)” value (shortened to “Dose-response, AVE”) ([3]; Glu 0.1 μM) is reported as 0, the “Dose-response, AVE” value ([3]; Glu 1 μM) is reported as 0.02632 and the “Dose-response, AVE” value ([3]; Glu 2 μM) is reported as 0.0378. For the same compound, the “Dose-response, AVE” value ([3]; Glu 5 μM) was 0.1147, the “Dose-response, AVE” value ([3]; Glu 10 μM) was 0.1961 and the “Dose-response, AVE” value ([3]; Glu 20 μM) was 0.322. The “Dose-response, AVE” value ([3]; Glu 50 μM) was 0.5379, the “Dose-response, AVE” value ([3]; Glu 100 μM) was 0.6984 and the “Dose-response, AVE” value ([3]; Glu 200 μM) was 0.8758. For the same compound, the “Dose-response, AVE” value ([3]; Glu 500 μM) was 1.002, the “Dose-response, AVE” value ([3]; Glu 750 μM) was 0.9874 and the “Dose-response, AVE” value ([3]; Glu 1000 μM) was 0.9487. The “Wavelength scan, AVE of Repeat 1-3 (Fig. 3 f)” value (“Wavelength scan, AVE” below) ([4]; 0.1 μM Glu) was 86.3333, the “Wavelength scan, AVE” value ([4]; 5 μM Glu) was 106 and the “Wavelength scan, AVE” value ([4]; 500 μM Glu) was 120.667. The “fluorescence response of GECFINDER” value [1] was -0.007518.

For `N[C@@H](CC(=O)O)c1ccccc1` [S-β-Phe], the “fluorescence response of GECFINDER” value [1] was 2.126, the “AVE, dose-response Fig. 4 b” value ([5]; substrate S-β-Phe 0.0001 μM) was -0.0002792 and the “AVE, dose-response Fig. 4 b” value ([5]; substrate S-β-Phe 0.001 μM) was -0.0008239. For the same compound, the “AVE, dose-response Fig. 4 b” value ([5]; substrate S-β-Phe 0.01 μM) was -0.003663, the “AVE, dose-response Fig. 4 b” value ([5]; substrate S-β-Phe 0.1 μM) was -0.01739 and the “AVE, dose-response Fig. 4 b” value ([5]; substrate S-β-Phe 1 μM) was 0.02113. For the same compound, the “AVE, dose-response Fig. 4 b” value ([5]; substrate S-β-Phe 10 μM) was 0.3498, the “AVE, dose-response Fig. 4 b” value ([5]; substrate S-β-Phe 50 μM) was 0.6956 and the “AVE, dose-response Fig. 4 b” value ([5]; substrate S-β-Phe 100 μM) was 0.8621. For the same compound, the “AVE, dose-response Fig. 4 b” value ([5]; substrate S-β-Phe 500 μM) was 0.9305, the “AVE, dose-response Fig. 4 b” value ([5]; substrate S-β-Phe 1000 μM) was 0.8832 and the “AVE, dose-response Fig. 4 b” value ([5]; substrate S-β-Phe 5000 μM) was 0.7695. For the same compound, the “AVE, dose-response Fig. 4 b” value ([5]; substrate S-β-Phe 10000 μM) was 0.7514, the “AVE, dose-response Fig. 4 f” value ([5]; substrate S-β-Phe 0.0001 μM) was -0.0001186 and the “AVE, dose-response Fig. 4 f” value ([5]; substrate S-β-Phe 0.001 μM) was -0.005617. The “AVE, dose-response Fig. 4 f” value ([5]; substrate S-β-Phe 0.01 μM) was 0.008482, the “AVE, dose-response Fig. 4 f” value ([5]; substrate S-β-Phe 0.1 μM) was 0.09012 and the “AVE, dose-response Fig. 4 f” value ([5]; substrate S-β-Phe 1 μM) was 0.4944. For the same compound, the “AVE, dose-response Fig. 4 f” value ([5]; substrate S-β-Phe 10 μM) was 1.228, the “AVE, dose-response Fig. 4 f” value ([5]; substrate S-β-Phe 50 μM) was 1.751 and the “AVE, dose-response Fig. 4 f” value ([5]; substrate S-β-Phe 100 μM) was 1.939. For the same compound, the “AVE, dose-response Fig. 4 f” value ([5]; substrate S-β-Phe 500 μM) was 2.2005, the “AVE, dose-response Fig. 4 f” value ([5]; substrate S-β-Phe 1000 μM) was 2.208 and the “AVE, dose-response Fig. 4 f” value ([5]; substrate S-β-Phe 5000 μM) was 2.26. The “AVE, dose-response Fig. 4 f” value ([5]; substrate S-β-Phe 10000 μM) was 2.258.
